Laboratory results as given in patent US6613718B2, “Aryl ether derivatives and processes for their preparation and herbicidal and desiccant compositions containing them” (Ishihara Sangyo Kaisha, Ltd., priority 2001, dated 2003).

Columns and labels:
[1] = Pre-emerge herbicidal activity of mixtures with Compound 1-1 and other herbicides, observed 64 days after treatment; type: in vivo; conditions: 1-1 alone 50 g ai/ha
Procedure: (§1) The data in Table XI and Table XII show the results when compounds 1-1 and 2-1 were tested as mixtures with other herbicides. Observations in Table XI were made 64 days after treatment while those in Table XII were made 56 days after treatment.

[2] = Pre-emerge herbicidal activity of mixtures with Compound 2-1 and other herbicides, observed 56 days after treatment; type: in vivo; conditions: 2-1 alone 200 g ai/ha
Procedure: as §1

Compound | ABUTH pre-emerge herbicidal activity ([1]; ABUTH) | AMARE pre-emerge herbicidal activity ([1]; AMARE) | AMBEL pre-emerge herbicidal activity ([1]; AMBEL) | CHEAL pre-emerge herbicidal activity ([1]; CHEAL) | CORN damage, pre-emerge ([1]; CORN) | SETVI pre-emerge herbicidal activity ([1]; SETVI) | ABUTH pre-emerge herbicidal activity ([2]; ABUTH) | AMARE pre-emerge herbicidal activity ([2]; AMARE) | AMBEL pre-emerge herbicidal activity ([2]; AMBEL) | CHEAL pre-emerge herbicidal activity ([2]; CHEAL) | CORN damage, pre-emerge ([2]; CORN) | SETVI pre-emerge herbicidal activity ([2]; SETVI)
Cn1c(C(F)(F)F)cc(=O)n(-c2cc(Oc3ncccn3)c(Cl)cc2F)c1=S [1-1.] | 87 | 93 | 92 | 95 | 0 | 90 |  |  |  |  |  | 
Cn1c(=S)n(C)c(=O)n(-c2cc(Oc3ncccn3)c(Cl)cc2F)c1=O [2-1.] |  |  |  |  |  |  | 95 | 93 | 95 | 95 | 0 | 90
